From patent US12404304B1, “Telomerase reverse transcriptase (TERT) expression enhancing compounds and methods for using the same” (Sierra Sciences, LLC, priority 2007, dated 2025)

Tests used:
viable cells in culture = assay: Cell viability assay (CellTiter-Glo Luminescent Cell Viability Assay, ATP quantitation, percent of vehicle control)
[1] = tested on: human TERT expression (hTERT mRNA); assay: Quantitative real-time RT-PCR of hTERT mRNA expression (Ct, transcripts) in compound-treated cells; type: cell-based; conditions: quantitative real-time RT-PCR
Procedure, shortened: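 Read-out is cycle threshold, the cycle at which probe fluorescence released by Taq 5′-nuclease activity crosses a set level; Ct falls as hTERT mRNA rises. cDNA of treated and untreated cells was compared, with starting transcripts quantified against a known-cDNA standard curve.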

Row | SMILES | Average Cell Viability after 24 Hours (% DMSO) (viable cells in culture) | Average Number of hTERT Transcripts [1]
1 | COc1ccc(OCC(=O)N/N=C/c2cccc3cccnc23)cc1 [compound 1289] | 84.79 % DMSO | 21.50
2 | O=C(COc1ccc(Cl)cc1)N/N=C/c1cccc2cccnc12 [compound 1290] | 62.81 % DMSO | 9.13
3 | CC(Oc1cccc2cccnc12)C(=O)N/N=C/c1cccc2cccnc12 (centres unmarked) [compound 1291] | 77.64 % DMSO | 47.89
4 | Cn1c(SCC(=O)N/N=C/c2sc3ccccc3c2O)nc2ccccc21 [compound 1292] | 69.51 % DMSO | 39.11
5 | O=C(N/N=C/c1ccccc1O)/C(=C\c1cccs1)NC(=O)c1ccccc1 [compound 1293] | 89.97 % DMSO | 37.88
6 | CCCCCC(=O)N/N=C(/C)c1ccccn1 [compound 1294] | 74.63 % DMSO | 105.99
7 | Cc1cc(NC(=O)C2c3ccccc3Oc3ccccc32)n(-c2nc(C)c(C)c(=O)[nH]2)n1 [compound 1295] | 66.62 % DMSO | 45.40
8 | CCc1c(C)nc(-n2nc(C)cc2NC(=O)C2c3ccccc3Oc3ccccc32)[nH]c1=O [compound 1296] | 73.20 % DMSO | 60.31
9 | CCOC(=O)c1nn(-c2ccccc2)c(=O)c2c(NC(=O)c3ccc4c(c3)OCO4)scc12 [compound 1298] | 101.83 % DMSO | 8.68
10 | CCOC(=O)c1nn(-c2ccccc2)c(=O)c2c(NC(=O)c3c(F)cccc3Cl)scc12 [compound 1299] | 69.64 % DMSO | 2.95
11 | CCOC(=O)c1nn(-c2ccc(Cl)cc2)c(=O)c2c(NC(=O)c3ccc(F)cc3)scc12 [compound 1300] | 62.52 % DMSO | 6.98
12 | O=C(Nc1ccc(Cl)c(Cl)c1)Nc1nnc(CSc2ccccc2)s1 [compound 1301] | 63.90 % DMSO | 65.14
13 | COC(=O)CSc1nnc(NC(=O)c2ccc(Cl)cc2)s1 [compound 1302] | 70.75 % DMSO | 41.43
14 | CCC(=O)Nc1nnc(SCc2cc(=O)c3cccc(Cl)c3[nH]2)s1 [compound 1303] | 80.90 % DMSO | 4.51
15 | c1ccc(-c2c(-c3ccccc3)n(Cc3ccco3)c3ncn4nc(-c5ccncc5)nc4c23)cc1 [compound 1304] | 89.74 % DMSO | 59.37
16 | CCOC(=O)c1cc2ccc(OC(=O)COc3ccc(C)cc3)cc2oc1=O [compound 1307] | 80.83 % DMSO | 8.66
17 | CCOC(=O)COc1ccc2c(C)cc(=O)oc2c1C [compound 1308] | 90.12 % DMSO | 3.16
18 | CN(C(=O)c1cc2ccccc2oc1=O)C1(C)CCS(=O)(=O)C1 (centres unmarked) [compound 1309] | 119.29 % DMSO | 10.58
19 | CCc1cc(=O)oc2c(C)c(OC(=O)c3ccccc3)ccc12 [compound 1310] | 105.11 % DMSO | 5.00
20 | COc1cc([N+](=O)[O-])cc2cc(C(=O)NCCCN3CCOCC3)c(=O)oc12 [compound 1311] | 92.83 % DMSO | 4.38
21 | Cc1noc(-c2cc(Br)cc(Br)c2O)n1 [compound 1312] | 67.76 % DMSO | 51.29
22 | O=C1CC(N2CCN(Cc3ccc(Cl)cc3)CC2)C(=O)N1c1ccccc1 (centres unmarked) [compound 1313] | 112.79 % DMSO | 7.45
23 | Cc1sc(CO)c(Sc2ccccc2)c1C(=O)O [compound 1314] | 109.57 % DMSO | 8.82
24 | CC1CCc2c(sc(NC(=O)c3cccnc3)c2C(=O)Nc2cccc(Cl)c2)C1 (centres unmarked) [compound 1315] | 58.86 % DMSO | 26.20
25 | O=C(Nc1nccs1)c1sc2ccccc2c1Cl [compound 1316] | 73.91 % DMSO | 13.39
26 | Nc1c(C(=O)Nc2ccc(Cl)c(Cl)c2)sc2nc3c(cc12)CCCC3 [compound 1317] | 88.17 % DMSO | 10.56
27 | CC(=O)Oc1ccccc1C(=O)Nc1ccc(F)cc1F [compound 1318] | 59.35 % DMSO | 13.40
28 | CC1=NN(C(=O)c2cc(Br)ccc2O)C(O)(c2ccccc2)C1 (centres unmarked) [compound 1319] | 61.93 % DMSO | 15.04

Row | SMILES | Average Cell Viability after 24 Hours (% DMSO) (viable cells in culture) | Average Number of hTERT Transcripts [1]
29 | Cc1ccn2c(-c3csc(Nc4ccc(C(=O)O)cc4)n3)c(C)nc2c1 [compound 1320] | 90.39 % DMSO | 8.00
30 | COC(=O)C1=C(C)Nc2nnnn2C1c1ccccc1OC (centres unmarked) [compound 1321] | 124.73 % DMSO | 22.30
31 | COc1ccc(-c2cc3ccccn3c2C)cc1 [compound 1322] | 81.69 % DMSO | 20.10
32 | Cc1ccc(S(=O)(=O)NC(=O)c2ccccc2O)cc1 [compound 1323] | 121.47 % DMSO | 11.00
33 | O=C1c2oc3ccccc3c(=O)c2C(c2cccc(OCc3ccccc3)c2)N1c1nccs1 (centres unmarked) [compound 1324] | 57.19 % DMSO | 8.42
34 | CCn1ncc([N+](=O)[O-])c1C(=O)Nc1sc2c(c1C#N)CCCCCC2 [compound 1325] | 94.20 % DMSO | 29.36
35 | CCc1ccc(NC2c3ccccc3C(=O)N2Cc2ccc3c(c2)OCO3)cc1 (centres unmarked) [compound 1326] | 86.99 % DMSO | 8.73
36 | Cc1cc(Br)ccc1NC(=O)Cn1ncc2c(=O)oc3ccccc3c21 [compound 1327] | 101.34 % DMSO | 4.67
37 | COc1ccc(Br)cc1CNC(=O)Cn1ncc2c(=O)oc3ccccc3c21 [compound 1328] | 71.81 % DMSO | 5.42
38 | CC1(C(=O)O)CC(=O)N=C2C=CC(Cl)=CN21 (centres unmarked) [compound 1329] | 94.31 % DMSO | 3.63
39 | COc1cc(C(=O)Nc2ccc(-c3nc4ccccc4[nH]3)cc2)ccc1OC(C)=O [compound 1330] | 97.84 % DMSO | 3.59
40 | COC(=O)CSc1nnc(-c2sc3ccccc3c2Cl)n1C [compound 1331] | 90.44 % DMSO | 32.92
41 | C=CCc1c(C)nc(SCC(=O)Nc2cc(Cl)cc(Cl)c2)[nH]c1=O [compound 1332] | 94.78 % DMSO | 12.68
42 | Cc1ccc(-c2noc(CN3CCOCC3)n2)cc1 [compound 1333] | 96.79 % DMSO | 3.71
43 | O=C(Nc1cc([N+](=O)[O-])ccc1O)c1cccc(F)c1 [compound 1334] | 75.50 % DMSO | 31.04
44 | O=[N+]([O-])c1ccc(NS(=O)(=O)c2cccc(C(F)(F)F)c2)cc1 [compound 1335] | 75.24 % DMSO | 11.78
45 | CC(=O)N1C(=O)C(=O)c2cc(Cl)ccc21 [compound 1336] | 100.05 % DMSO | 7.64
46 | CCOC(=O)COc1ccc2c(=O)c(-c3ccccc3Cl)c(C)oc2c1C [compound 1337] | 67.33 % DMSO | 30.15
47 | Cc1ccc(NC(=O)c2cc([N+](=O)[O-])ccc2O)cc1 [compound 1338] | 80.45 % DMSO | 49.42
48 | O=C(NC(=S)Nc1cc(Cl)cc(Cl)c1)c1cccc(F)c1 [compound 1339] | 68.94 % DMSO | 7.09
49 | CCC(C)Cn1c(CO)nc2ccccc21 (centres unmarked) [compound 1340] | 106.88 % DMSO | 4.37
50 | Cc1ccc(N)cc1S(=O)(=O)N1CCCCC1 [compound 1341] | 110.20 % DMSO | 4.50
51 | CCOC(=O)c1cc(NC(=O)N(C(C)C)C(C)C)c(C)nc1C [compound 1342] | 103.16 % DMSO | 4.48
52 | O=C(CSc1ncccc1C(=O)O)Nc1ccc(Oc2ccccc2)cc1 [compound 1343] | 103.75 % DMSO | 4.57
53 | S=C(Nc1ccc(Br)cc1)Nc1cccc(Cl)c1 [compound 1344] | 42.95 % DMSO | 7.86
54 | S=C(Nc1cccc(Cl)c1)Nc1cc(Cl)ccc1Cl [compound 1345] | 45.42 % DMSO | 24.88
55 | COC(=O)COc1ccc(NC(=O)CSc2ccc(Cl)cc2)cc1 [compound 1346] | 56.33 % DMSO | 31.23
